Assay results: patent publication US20240294499A1, “TARGETED PROTEIN DEGRADATION USING BIFUNCTIONAL COMPOUNDS THAT BIND UBIQUITIN LIGASE AND TARGET MCL-1 PROTEIN” (Captor Therapeutics S.A., priority 2021, published 2024)

Experiments:
[1] = biological target: T1, [MCL-1]-[compound of formula (I)]-[CRBN/DDB1] complex (Homo sapiens, UniProt Q07820+Q96SW2); test: AlphaLISA dose response ternary complex formation assay; type: binding; conditions: read-out: AlphaLISA dose response Average pEC50 by molecule (converted)
T1 sequence (Q07820 whole entry): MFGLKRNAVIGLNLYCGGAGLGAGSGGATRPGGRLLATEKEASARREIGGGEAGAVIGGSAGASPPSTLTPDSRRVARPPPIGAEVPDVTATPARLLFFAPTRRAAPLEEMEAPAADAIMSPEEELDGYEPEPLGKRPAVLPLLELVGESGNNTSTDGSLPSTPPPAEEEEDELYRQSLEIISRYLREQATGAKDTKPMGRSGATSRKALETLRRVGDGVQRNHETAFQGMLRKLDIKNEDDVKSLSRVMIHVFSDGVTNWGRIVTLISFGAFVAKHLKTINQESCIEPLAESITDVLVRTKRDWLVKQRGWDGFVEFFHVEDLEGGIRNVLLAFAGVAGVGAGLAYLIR
T1 sequence (Q96SW2 whole entry): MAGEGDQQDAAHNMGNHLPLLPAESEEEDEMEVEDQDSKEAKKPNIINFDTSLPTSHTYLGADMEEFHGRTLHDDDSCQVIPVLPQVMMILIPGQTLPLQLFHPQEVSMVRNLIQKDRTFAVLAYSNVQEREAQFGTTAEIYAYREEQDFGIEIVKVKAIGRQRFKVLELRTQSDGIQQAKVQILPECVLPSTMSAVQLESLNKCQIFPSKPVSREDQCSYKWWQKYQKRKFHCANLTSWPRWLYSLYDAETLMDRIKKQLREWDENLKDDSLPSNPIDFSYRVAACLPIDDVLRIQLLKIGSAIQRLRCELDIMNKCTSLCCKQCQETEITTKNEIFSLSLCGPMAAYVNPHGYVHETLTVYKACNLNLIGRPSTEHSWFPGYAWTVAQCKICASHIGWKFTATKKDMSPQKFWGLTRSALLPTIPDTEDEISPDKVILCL
T1 sequence (Q16531 whole entry partner): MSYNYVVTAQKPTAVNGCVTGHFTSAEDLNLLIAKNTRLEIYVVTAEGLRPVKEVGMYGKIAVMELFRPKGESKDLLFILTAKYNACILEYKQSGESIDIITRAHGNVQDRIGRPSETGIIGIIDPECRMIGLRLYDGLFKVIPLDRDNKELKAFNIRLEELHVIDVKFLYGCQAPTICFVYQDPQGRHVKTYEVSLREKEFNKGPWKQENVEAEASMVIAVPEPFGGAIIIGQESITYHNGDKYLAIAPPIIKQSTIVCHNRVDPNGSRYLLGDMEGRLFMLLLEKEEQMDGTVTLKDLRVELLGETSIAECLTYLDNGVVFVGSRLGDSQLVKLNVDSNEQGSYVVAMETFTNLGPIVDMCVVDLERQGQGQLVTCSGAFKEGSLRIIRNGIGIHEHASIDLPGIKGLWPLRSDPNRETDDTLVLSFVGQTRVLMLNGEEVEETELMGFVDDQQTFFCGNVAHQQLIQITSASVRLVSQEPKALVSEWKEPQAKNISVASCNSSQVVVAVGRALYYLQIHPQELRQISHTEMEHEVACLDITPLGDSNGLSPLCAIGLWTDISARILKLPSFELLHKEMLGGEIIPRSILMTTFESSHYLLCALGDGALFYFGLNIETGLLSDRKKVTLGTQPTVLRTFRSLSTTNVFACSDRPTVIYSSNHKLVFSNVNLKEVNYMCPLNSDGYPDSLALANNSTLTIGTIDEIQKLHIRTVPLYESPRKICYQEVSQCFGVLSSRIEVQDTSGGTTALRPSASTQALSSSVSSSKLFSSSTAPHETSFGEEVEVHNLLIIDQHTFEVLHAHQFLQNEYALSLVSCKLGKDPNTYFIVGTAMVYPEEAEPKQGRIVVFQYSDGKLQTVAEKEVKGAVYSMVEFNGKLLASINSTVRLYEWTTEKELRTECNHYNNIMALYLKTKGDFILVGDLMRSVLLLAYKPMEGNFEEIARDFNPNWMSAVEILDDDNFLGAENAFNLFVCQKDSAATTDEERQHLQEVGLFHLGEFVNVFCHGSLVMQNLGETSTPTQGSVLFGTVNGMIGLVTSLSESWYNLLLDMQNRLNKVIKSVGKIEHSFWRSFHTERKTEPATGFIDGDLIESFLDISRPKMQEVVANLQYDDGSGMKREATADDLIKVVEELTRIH
Procedure, shortened: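 EC50 comes from dose–response of AlphaLISA luminescence (excitation 680, emission 615 nm), normalised between DMSO background and an internal positive control, with concentrations past the hook point dropped. Ternary complex formed by mixing bead-bound biotin-hMCL-1 and His-CRBN/DDB1 (protein solutions 40 and 200 nM) with compound in 2% DMSO, 30 min, 25 °C.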

OPM-2 cells = test: Cell viability assay (CellTiter-Glo), OPM-2; type: cell-based; conditions: Homo sapiens, 24 hours incubation, 1% FBS, read-out: Average pIC50 by molecule OPM-2 (converted)
Description: The effect of various compounds of the invention on the viability of OPM-2, MV-4-11 and ARH-77 cell lines was investigated, using the CTG protocol described below.
OPM-2 and MV-4-11 cell lines are derived from multiple myeloma and acute myeloid leukaemia, respectively. Both cell lines are described in the literature as MCL-1 dependent lines, as opposed to lymphoblast-like ARH-77 cell line, which is described as independent of MCL-1 (Tron A E et al. Nat Commun. 2018; 9: 5341; Caenepeel S et al. Cancer Discov. 2018 December; 8(12):1582-1597).
Cells (OPM-2, MV-4-11 or ARH-77) were seeded on […] in a growth medium with FBS reduced to 1%. Next, compound stocks were pre-diluted in DMSO and added directly to the cells growth medium (final DMSO concentration: 0.5%). Compound concentrations used in this assay: 1/3 dilutions starting at 30 uM (9 to 12 points).
After 24 hours of incubation, cell viability was evaluated using CellTiter-Glo Luminescent Cell Viability Assay (Promega, cat #G7572). Luminescence signal was measured using a CLARIOstar Plus Multi-Mode Microplate Reader (574-590 nm).
Results were normalized to DMSO control.

ARH-77 cells = test: Cell viability assay (CellTiter-Glo), ARH-77; type: cell-based; conditions: Homo sapiens, ARH-77, 24 hours incubation, 1% FBS, read-out: Average pIC50 by molecule ARH-77 (converted)
Procedure, shortened: (§1)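 OPM-2, MV-4-11 and ARH-77 cells were grown in medium with 1% FBS and treated with compound in 1/3 dilutions from 30 uM (9–12 points, 0.5% DMSO). Viability was read by CellTiter-Glo luminescence after 24 hours and normalized to DMSO control.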

MV-4-11 cells = test: Cell viability assay (CellTiter-Glo), MV-4-11; type: cell-based; conditions: Homo sapiens, MV4-11, 24 hours incubation, 1% FBS, read-out: Average pIC50 by molecule MV-4-11 (converted)
Procedure, shortened: as §1

DMS 114 cells = test: Cell viability assay (CellTiter-Glo), DMS 114; type: cell-based; conditions: Homo sapiens, DMS-114, 72 h, 72 hours incubation, 10% FBS, read-out: Average pIC50 by molecule DMS 114 (converted)
Description: The effect of various compounds of the invention on the viability of DMS 114 cell line was investigated, using the CTG protocol described below.
DMS 114 cell line is derived from small-cell lung cancer, which is described in the literature as MCL-1 dependent lines [Yasuda Y et al. Cell Death & Disease 2020; 11: 177].
DMS 114 cells were detached with trypsin and then resuspended in growth medium containing 10% FBS and counted. Cell suspension was then adjusted to 5×10^4 cells/ml using growth medium containing 10% FBS. Afterwards, […] were seeded on 384-well plates (50 μl). Plates were then placed in the incubator overnight until treated. Next day, compounds were added using ECHO 555 liquid handler. Compound concentrations used in this assay: 1/3 dilutions starting at 30 uM (9 to 12 points).
After 72 hours of incubation, cell viability was evaluated using CellTiter-Glo Luminescent Cell Viability Assay (Promega, cat #G7572). Luminescence signal was measured using a CLARIOstar Plus Multi-Mode Microplate Reader (574-590 nm).

[2] = biological target: T1, [MCL-1]-[compound of formula (I)]-[CRBN/DDB1] complex; test: HTRF ternary complex assay; type: binding; conditions: ternary complex formation; read-out: HTRF ternary complex Average pEC50 by molecule (converted)
Procedure, shortened: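 hMcl-1 and CRBN (mix at 48 nM and 105.6 nM) with Streptavidin-Eu cryptate and anti-6×His-d2 in PPI Europium buffer with 2 mM DTT; compounds in dose-response, 0.5% DMSO. Incubated 180 min at 25° C, TR-FRET 665/620 read. Bell-shaped curve fitted by Gaussian; EC50 reported.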

MCL-1 protein [3] = biological target: T2, MCL-1 protein (Homo sapiens, UniProt Q07820); test: OPM-2 cells: MCL-1 protein degradation, Western blot; type: cell-based; parameters: endogenous in cells; host or cells: OPM-2; conditions: OPM-2 cell line, 6 h treatment, 100 nM compound, vs DMSO
T2 sequence (Q07820 whole entry): as the sequence (Q07820 whole entry) above
Description: The effect of various compounds of the invention and the reference compounds on MCL-1 protein degradation in the OPM-2 cell line was investigated, using the degradation assay protocol below.
(§2) OPM-2 cells were maintained in RPMI-1640 medium, supplemented with penicillin/streptomycin and 10% Fetal Bovine Serum (FBS). During the treatment, FBS concentration was reduced to 1%.
(§3) Compound stocks were pre-diluted in DMSO and added directly to the cells growth medium (final DMSO concentration: 0.5%).
(§4) OPM-2 cells were collected, centrifuged (250 rcf, 5 min), resuspended in a growth medium containing 1% FBS and counted. The cell suspension was then adjusted to 1×10^6 cell/ml using a growth medium containing 1% FBS. Afterwards, 0.5×10^6 cells were seeded on 24-well plates in 0.5 mL of medium per well. Immediately after seeding cells, compounds in appropriate concentrations were added to the cell culture medium.
Following the treatment with the compounds, cells were collected from the plates and suspended in a lysis buffer (2% SDS, 50 mM Tris, pH 8.0, 100 U/ml Pierce Universal Nuclease for Cell Lysis, complete EDTA-free Protease Inhibitor Cocktail) and incubated on ice for 45 min. The amount of protein was determined via BCA assay, and the equal quantity of each sample was loaded on the precast gel for the protein separation. Following the electrophoresis and transfer to the membrane, the membrane was stained with Ponceau (0.1% (w/v) Ponceau in 5% acetic acid). After total protein detection, the stain was washed out using TBST. After the antibody staining for MCL-1 and α-tubulin, the membranes were washed and signals developed.
Densitometric values for MCL-1 were normalized to total protein level (the Ponceau Staining). [%] of protein reduction is calculated in comparison to the cells treated with DMSO, which stand for 0%.
The results for the 6 h treatment with 100 nM compounds are shown in Table 9, using the following labels: • <30% for 0-29% of MCL-1 protein reduction, • ≥30% for 30-49% of MCL-1 protein reduction, • ≥50% for 50-100% of MCL-1 protein reduction.

MCL-1 protein [4] = biological target: T2, MCL-1 protein; test: OPM-2 cells: MCL-1 protein degradation, Simple Western; type: cell-based; parameters: endogenous in cells; host or cells: OPM-2; conditions: OPM-2 cell line, 6 h treatment, 100 nM compound, vs DMSO
Description: The effect of various compounds of the invention and the reference compounds on MCL-1protein degradation in the OPM-2 cell line was investigated, using the degradation assay protocol below.
as §2, §3, §4
Following the treatment with the compounds, cells were collected from the plates and suspended in a lysis buffer (2% SDS, 50 mM Tris, pH 8.0, 100 U/ml Pierce Universal Nuclease for Cell Lysis, cOmplete EDTA-free Protease Inhibitor Cocktail) and incubated on ice for 45 min.
The following steps, including sample loading, protein separation, immunoprobing or labelling, washes and detection analysis was performed using Jess from ProteinSimple, an automatic system for analyzing protein levels in cell lysates (12-230 kDa Jess or Wes separation module 8×25 capillaries, protein normalization assay, no. SM-PN01-1). The Protein of Interest was detected using MCL-1 (D35A5) Rabbit monoclonal antibody (Cell Signaling, #5453, LOT: 4). Antibody was diluted in a ratio of 1:100 in Antibody diluent.
[%] of protein reduction is calculated in comparison to the cells treated with DMSO, which stand for 0%.
The results for the 6 h treatment with 100 nM compounds are shown in Table 9, using the following labels: • <20% for 0-19% of MCL-1 protein reduction, • ≥20% for 20-39% of MCL-1 protein reduction, • ≥40% for 40-100% of MCL-1 protein reduction.

| EC50 [1] | IC50 (MV-4-11 cells) | EC50 [2] | Western blot, % of protein reduction (MCL-1 protein [3]) | Simple Western, % of protein reduction (MCL-1 protein [4]) | SMILES | IC50 (OPM-2 cells) | IC50 (ARH-77 cells) | IC50 (DMS 114 cells) |
| --- | --- | --- | --- | --- | --- | --- | --- | --- |
| < 100 nM | ≤ 316 nM | – | – | – | Cc1nn(C)c(C)c1-c1c(Cl)ccc2c(CCCOc3cccc4ccccc34)c(C(=O)O)n(CCN3CCN(C(=O)CNc4cccc5c4C(=O)N(C4CCC(=O)NC4=O)C5=O)CC3)c12 (stereo not shown) [Compound 207, 6-chloro-1-{2-[4-(2-{[2-(2,6-dioxopiperidin-3-yl)-1,3-dioxo-2,3-dihydro-1H-isoindol-4-yl]amino}acetyl)piperazin-1-yl]ethyl}-3-[3-(naphthalen-1-yloxy)propyl]-7-(1,3,5-trimethyl-1H-pyrazol-4-yl)-1H-indole-2-carboxylic acid] | ≤ 1000 nM | > 10000 nM | – |
| < 100 nM | ≤ 100 nM | – | – | – | Cc1nn(C)c(C)c1-c1c(Cl)ccc2c(CCCOc3cccc4ccccc34)c(C(=O)O)n(CCN3CCN(C(=O)COc4cccc5c4C(=O)N(C4CCC(=O)NC4=O)C5=O)CC34CC4)c12 (stereo not shown) [Compound 210, 6-chloro-1-(2-(7-(2-((2-(2,6-dioxopiperidin-3-yl)-1,3-dioxoisoindolin-4-yl)oxy)acetyl)-4,7-diazaspiro[2.5]octan-4-yl)ethyl)-3-(3-(naphthalen-1-yloxy)propyl)-7-(1,3,5-trimethyl-1H-pyrazol-4-yl)-1H-indole-2-carboxylic acid] | ≤ 1000 nM | > 10000 nM | – |
| < 100 nM | ≤ 316 nM | – | – | – | Cc1nn(C)c(C)c1-c1c(Cl)ccc2c(CCCOc3cccc4ccccc34)c(C(=O)O)n(CCN3C[C@@H]4CN(C(=O)COc5cccc6c5C(=O)N(C5CCC(=O)NC5=O)C6=O)C[C@@H]4C3)c12 (stereo partly drawn) [Compound 211, 6-chloro-1-(2-((3aR,6aS)-5-(2-((2-(2,6-dioxopiperidin-3-yl)-1,3-dioxoisoindolin-4-yl)oxy)acetyl)hexahydropyrrolo[3,4-c]pyrrol-2(1H)-yl)ethyl)-3-(3-(naphthalen-1-yloxy)propyl)-7-(1,3,5-trimethyl-1H-pyrazol-4-yl)-1H-indole-2-carboxylic acid] | ≤ 3160 nM | > 10000 nM | – |
| < 10 nM | ≤ 100 nM | < 10 nM | – | – | Cc1nn(C)c(C)c1-c1c(Cl)ccc2c(CCCOc3cccc4c3CCCC4)c(C(=O)O)n(CCN3CCN(C(=O)COc4cccc5c4C(=O)N(C4CCC(=O)NC4=O)C5=O)CC3)c12 (stereo not shown) [Compound 216, 6-chloro-1-{2-[4-(2-{[2-(2,6-dioxopiperidin-3-yl)-1,3-dioxo-2,3-dihydro-1H-isoindol-4-yl]oxy}acetyl)piperazin-1-yl]ethyl}-3-[3-(5,6,7,8-tetrahydronaphthalen-1-yloxy)propyl]-7-(1,3,5-trimethyl-1H-pyrazol-4-yl)-1H-indole-2-carboxylic acid] | ≤ 100 nM | > 10000 nM | ≤ 3160 nM |
| < 100 nM | ≤ 1000 nM | – | ≥50% | ≥20% | Cc1nn(C)c(C)c1-c1cccc2c(CCCOc3cccc4ccccc34)c(C(=O)O)n(CCN3CCN(C(=O)COc4cccc5c4C(=O)N(C4CCC(=O)NC4=O)C5=O)CC3)c12 (stereo not shown) [Compound 241, 1-(2-(4-(2-((2-(2,6-dioxopiperidin-3-yl)-1,3-dioxoisoindolin-4-yl)oxy)acetyl)piperazin-1-yl)ethyl)-3-(3-(naphthalen-1-yloxy)propyl)-7-(1,3,5-trimethyl-1H-pyrazol-4-yl)-1H-indole-2-carboxylic acid] | – | – | – |
| < 100 nM | ≤ 100 nM | < 10 nM | – | – | Cc1nn(C)c(C)c1-c1c(Cl)ccc2c(CCCOc3cccc4cc(F)ccc34)c(C(=O)O)n(CCN3CCN(C(=O)Cn4c(C)nc5c(C(=O)NC6CCC(=O)NC6=O)ccc(Br)c54)CC3)c12 (stereo not shown) [Compound 269, 1-(2-(4-(2-(7-Bromo-4-((2,6-dioxopiperidin-3-yl)carbamoyl)-2-methyl-1H-benzo[d]imidazol-1-yl)acetyl)piperazin-1-yl)ethyl)-6-chloro-3-(3-((6-fluoronaphthalen-1-yl)oxy)propyl)-7-(1,3,5-trimethyl-1H-pyrazol-4-yl)-1H-indole-2-carboxylic acid] | – | > 10000 nM | ≤ 3160 nM |
| – | ≤ 31.6 nM | < 100 nM | – | – | COCc1c(-c2c(Cl)ccc3c(CCCOc4cccc5cc(F)ccc45)c(C(=O)O)n(CCN4CCN(C(=O)COc5cccc6c5CN(C5CCC(=O)NC5=O)C6=O)CC4)c23)c(C)nn1C (stereo not shown) [Compound 349, 6-Chloro-1-(2-(4-(2-((2-(2,6-dioxopiperidin-3-yl)-1-oxoisoindolin-4-yl)oxy)acetyl)piperazin-1-yl)ethyl)-3-(3-((6-fluoronaphthalen-1-yl)oxy)propyl)-7-(5-(methoxymethyl)-1,3-dimethyl-1H-pyrazol-4-yl)-1H-indole-2-carboxylic acid] | – | > 10000 nM | ≤ 1000 nM |
